{"source": "patent US20260055103A1", "about": "“2,3,4,9-TETRAHYDRO-1H-PYRIDO[3,4-B]INDOLE DERIVATIVES AS ESTROGEN RECEPTOR MODULATORS FOR THE TREATMENT OF CANCER” (Olema Pharmaceuticals, Inc., priority 2022, published 2026)", "data": [{"biological_target": "T1, estrogen receptor (Homo sapiens, UniProt P03372)", "T1 construct": "endogenous in cells; host or cells: ECC-1 cells", "T1 sequence (P03372 1-595)": "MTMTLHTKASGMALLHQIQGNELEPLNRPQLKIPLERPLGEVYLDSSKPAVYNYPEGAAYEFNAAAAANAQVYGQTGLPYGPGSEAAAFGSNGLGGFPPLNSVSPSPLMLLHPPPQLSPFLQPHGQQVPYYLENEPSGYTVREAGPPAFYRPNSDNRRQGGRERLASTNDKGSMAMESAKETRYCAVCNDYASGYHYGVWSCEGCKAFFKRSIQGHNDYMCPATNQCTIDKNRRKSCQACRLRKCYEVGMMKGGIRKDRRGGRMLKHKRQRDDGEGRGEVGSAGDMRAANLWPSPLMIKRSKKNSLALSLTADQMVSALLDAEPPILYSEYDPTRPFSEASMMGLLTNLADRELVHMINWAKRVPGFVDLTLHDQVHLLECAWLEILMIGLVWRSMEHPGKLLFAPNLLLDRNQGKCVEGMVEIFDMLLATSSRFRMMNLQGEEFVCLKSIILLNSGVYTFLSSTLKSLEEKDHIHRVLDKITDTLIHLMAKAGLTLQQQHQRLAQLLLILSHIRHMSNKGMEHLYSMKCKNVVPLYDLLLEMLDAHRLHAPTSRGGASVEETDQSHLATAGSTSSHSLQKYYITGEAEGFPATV", "assay": "Alkaline phosphatase (AP) assay in ECC-1 cells, agonist mode (no E2) and antagonist mode (500 pM E2)", "format": "cell-based", "conditions": "3 days, AP activity normalized to 500 pM E2 alone, agonist mode without E2, antagonist mode with 500 pM E2", "protocol": "ECC-1 cells were trypsinized and resuspended in hormone-depleted media and plated at a density of 15 k cells per well into a 96-well plate for at least 4 hours. Cells were treated with test compounds in the absence of E2 (for agonist mode) or in the presence of 500 pM E2 (for antagonist mode) for 3 days and plates were subsequently frozen at −80° C. Thawed plates were incubated with a chromogenic substrate of AP, p-nitrophenyl phosphate (Thermo Fisher Scientific), for 40 minutes at 42° C., and absorbances were read at 405 nm. AP activity was normalized to the activity of 500 pM E2 alone.\nThe compound numbers correspond to the compound numbers of Table 1 and 2. Compounds having an activity designated as “+” provided estrogen receptor agonism having (i) at least 80% increase in the E2-normalized signal in the AP assay (agonist mode) and (ii) no more than 80% reduction in the E2-normalized signal in the AP assay (antagonist mode). Compounds having an activity designated as “++” provided estrogen receptor antagonism having (i) between 10% and 80% increase in the E2-normalized signal in the AP assay (agonist mode) and (ii) between 10% and 80% reduction in the E2-normalized signal in the AP assay (antagonist mode).", "values": [{"smiles": "C[C@@H]1Cc2c([nH]c3ccccc23)[C@@H](c2ccc(CC3CN(CCCF)C3)s2)N1CC(F)(F)CF", "note": "[Example I-23, (1S,3R)-1-(5-((1-(3-fluoropropyl)azetidin-3-yl)methyl)thiophen-2-yl)-3-methyl-2-(2,2,3-trifluoropropyl)-2,3,4,9-tetrahydro-1H-pyrido[3,4-b]indole]", "Activity (estrogen receptor modulation, agonism and antagonism)": "++ (estrogen receptor antagonism having (i) between 10% and 80% increase in the E2-normalized signal in the AP assay (agonist mode) and (ii) between 10% and 80% reduction in the E2-normalized signal in the AP assay (antagonist mode))"}, {"smiles": "C[C@@H]1Cc2c([nH]c3ccccc23)[C@@H](c2ccc(CC3CN(CC4COC4)C3)s2)N1CC(C)(C)F", "note": "[Example I-24, (1S,3R)-2-(2-fluoro-2-methylpropyl)-3-methyl-1-(5-((1-(oxetan-3-ylmethyl)azetidin-3-yl)methyl)thiophen-2-yl)-2,3,4,9-tetrahydro-1H-pyrido[3,4-b]indole]", "Activity (estrogen receptor modulation, agonism and antagonism)": "++ (estrogen receptor antagonism having (i) between 10% and 80% increase in the E2-normalized signal in the AP assay (agonist mode) and (ii) between 10% and 80% reduction in the E2-normalized signal in the AP assay (antagonist mode))"}, {"smiles": "C[C@@H]1Cc2c([nH]c3ccccc23)[C@@H](c2ccc(CCCN3CC[C@@H](CF)C3)s2)N1CC(C)(C)F", "note": "[Example I-25, (1S,3R)-2-(2-fluoro-2-methylpropyl)-1-(5-(3-((R)-3-(fluoromethyl)pyrrolidin-1-yl)propyl)thiophen-2-yl)-3-methyl-2,3,4,9-tetrahydro-1H-pyrido[3,4-b]indole]", "Activity (estrogen receptor modulation, agonism and antagonism)": "++ (estrogen receptor antagonism having (i) between 10% and 80% increase in the E2-normalized signal in the AP assay (agonist mode) and (ii) between 10% and 80% reduction in the E2-normalized signal in the AP assay (antagonist mode))"}, {"smiles": "C[C@@H]1CCN(CCCc2ccc([C@@H]3c4[nH]c5ccccc5c4C[C@@H](C)N3CC(C)(C)F)s2)C1", "note": "[Example I-26, (3R)-1-(3-{5-[(1S,3R)-2-(2-fluoro-2-methylpropyl)-3-methyl-1H,2H,3H,4H,9H-pyrido[3,4-b]indol-1-yl]thiophen-2-yl}propyl)-3-methylpyrrolidine]", "Activity (estrogen receptor modulation, agonism and antagonism)": "++ (estrogen receptor antagonism having (i) between 10% and 80% increase in the E2-normalized signal in the AP assay (agonist mode) and (ii) between 10% and 80% reduction in the E2-normalized signal in the AP assay (antagonist mode))"}, {"smiles": "C[C@@H]1Cc2c([nH]c3ccccc23)[C@@H](c2ccc(CC3CN(CCCF)C3)s2)N1CC(F)(F)C(F)F", "note": "[Example I-27, (1S,3R)-1-(5-((1-(3-fluoropropyl)azetidin-3-yl)methyl)thiophen-2-yl)-3-methyl-2-(2,2,3,3-tetrafluoropropyl)-2,3,4,9-tetrahydro-1H-pyrido[3,4-b]indole]", "Activity (estrogen receptor modulation, agonism and antagonism)": "++ (estrogen receptor antagonism having (i) between 10% and 80% increase in the E2-normalized signal in the AP assay (agonist mode) and (ii) between 10% and 80% reduction in the E2-normalized signal in the AP assay (antagonist mode))"}, {"smiles": "C[C@@H]1Cc2c([nH]c3ccccc23)[C@@H](c2ccc(CC3CN(CCCF)C3)s2)N1CC(F)(F)C(F)(F)F", "note": "[Example I-28, (1S,3R)-1-(5-((1-(3-fluoropropyl)azetidin-3-yl)methyl)thiophen-2-yl)-3-methyl-2-(2,2,3,3,3-pentafluoropropyl)-2,3,4,9-tetrahydro-1H-pyrido[3,4-b]indole]", "Activity (estrogen receptor modulation, agonism and antagonism)": "++ (estrogen receptor antagonism having (i) between 10% and 80% increase in the E2-normalized signal in the AP assay (agonist mode) and (ii) between 10% and 80% reduction in the E2-normalized signal in the AP assay (antagonist mode))"}, {"smiles": "C[C@@H]1Cc2c([nH]c3ccccc23)[C@@H](c2cnc(CC3CN(CCCF)C3)s2)N1CC(F)F", "note": "[Example I-29]", "Activity (estrogen receptor modulation, agonism and antagonism)": "+++ (estrogen receptor antagonism (i) with pIC50 greater than 7.5 and at least a 10% reduction in the E2-normalized signal in the AP assay (antagonist mode); and no more than 10% increase in E2-normalized signal in the AP assay (agonist mode))"}, {"smiles": "C[C@@H]1Cc2c([nH]c3ccccc23)[C@@H](c2cnc(C[C@H]3CCN(CCCF)C3)s2)N1CC(F)F", "note": "[Example I-30, 5-((1S,3R)-2-(2,2-difluoroethyl)-3-methyl-2,3,4,9-tetrahydro-1H-pyrido[3,4-b]indol-1-yl)-2-(((R)-1-(3-fluoropropyl)pyrrolidin-3-yl)methyl)thiazole]", "Activity (estrogen receptor modulation, agonism and antagonism)": "++ (estrogen receptor antagonism having (i) between 10% and 80% increase in the E2-normalized signal in the AP assay (agonist mode) and (ii) between 10% and 80% reduction in the E2-normalized signal in the AP assay (antagonist mode))"}, {"smiles": "C[C@@H]1Cc2c([nH]c3ccccc23)[C@@H](c2ncc(CC3CN(CCCF)C3)s2)N1CC(F)F", "note": "[Example I-31]", "Activity (estrogen receptor modulation, agonism and antagonism)": "++ (estrogen receptor antagonism having (i) between 10% and 80% increase in the E2-normalized signal in the AP assay (agonist mode) and (ii) between 10% and 80% reduction in the E2-normalized signal in the AP assay (antagonist mode))"}, {"smiles": "CCCN1CC(Cc2cnc([C@@H]3c4[nH]c5ccccc5c4C[C@@H](C)N3CC(F)F)s2)C1", "note": "[Example I-32, 2-[(1S,3R)-2-(2,2-difluoroethyl)-3-methyl-1,3,4,9-tetrahydropyrido[3,4-b]indol-1-yl]-5-[(1-propylazetidin-3-yl)methyl]thiazole]", "Activity (estrogen receptor modulation, agonism and antagonism)": "++ (estrogen receptor antagonism having (i) between 10% and 80% increase in the E2-normalized signal in the AP assay (agonist mode) and (ii) between 10% and 80% reduction in the E2-normalized signal in the AP assay (antagonist mode))"}, {"smiles": "C[C@@H]1Cc2c([nH]c3ccccc23)[C@@H](c2cnc(C[C@H]3CCN(CCCF)C3)s2)N1CC(F)(F)F", "note": "[Example I-33, 2-(((R)-1-(3-fluoropropyl)pyrrolidin-3-yl)methyl)-5-((1S,3R)-3-methyl-2-(2,2,2-trifluoroethyl)-2,3,4,9-tetrahydro-1H-pyrido[3,4-b]indol-1-yl)thiazole]", "Activity (estrogen receptor modulation, agonism and antagonism)": "++ (estrogen receptor antagonism having (i) between 10% and 80% increase in the E2-normalized signal in the AP assay (agonist mode) and (ii) between 10% and 80% reduction in the E2-normalized signal in the AP assay (antagonist mode))"}, {"smiles": "C[C@@H]1Cc2c([nH]c3ccccc23)[C@@H](c2ncc(CC3CN(CCCF)C3)s2)N1CC(F)(F)F", "note": "[Example I-34, 5-[[1-(3-fluoropropyl)azetidin-3-yl]methyl]-2-[(1S,3R)-3-methyl-2-(2,2,2-trifluoroethyl)-1,3,4,9-tetrahydropyrido[3,4-b]indol-1-yl]thiazole]", "Activity (estrogen receptor modulation, agonism and antagonism)": "++ (estrogen receptor antagonism having (i) between 10% and 80% increase in the E2-normalized signal in the AP assay (agonist mode) and (ii) between 10% and 80% reduction in the E2-normalized signal in the AP assay (antagonist mode))"}, {"smiles": "C[C@@H]1Cc2c([nH]c3ccccc23)[C@@H](c2ncc(CC3CN(CCC(F)F)C3)s2)N1CC(F)F", "note": "[Example I-35, 2-[(1S,3R)-2-(2,2-difluoroethyl)-3-methyl-1,3,4,9-tetrahydropyrido[3,4-b]indol-1-yl]-5-[[1-(3,3-difluoropropyl)azetidin-3-yl]methyl]thiazole]", "Activity (estrogen receptor modulation, agonism and antagonism)": "++ (estrogen receptor antagonism having (i) between 10% and 80% increase in the E2-normalized signal in the AP assay (agonist mode) and (ii) between 10% and 80% reduction in the E2-normalized signal in the AP assay (antagonist mode))"}, {"smiles": "C[C@@H]1Cc2c([nH]c3ccccc23)[C@@H](c2cnc(C[C@H]3CCN(CCCF)C3)s2)N1CC(F)(F)CO", "note": "[Example I-36, 2,2-difluoro-3-[(1S,3R)-1-[2-[[(3R)-1-(3-fluoropropyl)pyrrolidin-3-yl]methyl]thiazol-5-yl]-3-methyl-1,3,4,9-tetrahydropyrido[3,4-b]indol-2-yl]propan-1-ol]", "Activity (estrogen receptor modulation, agonism and antagonism)": "+ (estrogen receptor agonism having (i) at least 80% increase in the E2-normalized signal in the AP assay (agonist mode) and (ii) no more than 80% reduction in the E2-normalized signal in the AP assay (antagonist mode))"}, {"smiles": "CCCN1CC(Cc2cnc([C@@H]3c4[nH]c5ccccc5c4C[C@@H](C)N3CC(F)(F)F)s2)C1", "note": "[Example I-37, 2-[(1S,3R)-3-methyl-2-(2,2,2-trifluoroethyl)-1,3,4,9-tetrahydropyrido[3,4-b]indol-1-yl]-5-[(1-propylazetidin-3-yl)methyl]thiazole]", "Activity (estrogen receptor modulation, agonism and antagonism)": "++ (estrogen receptor antagonism having (i) between 10% and 80% increase in the E2-normalized signal in the AP assay (agonist mode) and (ii) between 10% and 80% reduction in the E2-normalized signal in the AP assay (antagonist mode))"}]}]}
